Literature values in patent publication US20260027014A1, “DEVICES AND METHODS RELATED TO COLORIMETRIC DETECTION FOR DENTAL USES” (CaviSense Inc., priority 2022, published 2026).
Read-outs that look alike come from different tables or passages of the source.

solubility (in methanol): 1 g/100 ml
solubility (in water): 210 g/100 mL
Compound: OC[C@H]1O[C@@](CO)(O[C@H]2O[C@H](CO)[C@@H](O)[C@H](O)[C@H]2O)[C@@H](O)[C@@H]1O [sucrose]
